Laboratory results from the kinase profiling compilation of Christmann-Franck et al. (2016).
Several values for one entry are separate records, joined by “and”; a condition that tells them apart may be missing. Equal values may be shown once.

target: PAK3 (human) (UniProt O75914); test: radiometric filter-binding kinase assay, Kinase HotSpot; conditions: compound 0.5 µM; ATP 10 µM

| Compound | residual activity [%] |
| --- | --- |
| O=C(NC(NC(=S)Nc1ccc(F)c([N+](=O)[O-])c1)C(Cl)(Cl)Cl)C(c1ccccc1)c1ccccc1 (stereo unspecified) | 91.9 |
| CS(=O)c1ccc(-c2nc(-c3ccc(F)cc3)c(-c3ccncc3)[nH]2)cc1 (stereo unspecified) | 102 |

target: PAK7 (human) (UniProt Q9P286); test: as above; conditions: compound 0.5 µM; ATP 10 µM
Sequence (Q9P286 whole entry, looked up): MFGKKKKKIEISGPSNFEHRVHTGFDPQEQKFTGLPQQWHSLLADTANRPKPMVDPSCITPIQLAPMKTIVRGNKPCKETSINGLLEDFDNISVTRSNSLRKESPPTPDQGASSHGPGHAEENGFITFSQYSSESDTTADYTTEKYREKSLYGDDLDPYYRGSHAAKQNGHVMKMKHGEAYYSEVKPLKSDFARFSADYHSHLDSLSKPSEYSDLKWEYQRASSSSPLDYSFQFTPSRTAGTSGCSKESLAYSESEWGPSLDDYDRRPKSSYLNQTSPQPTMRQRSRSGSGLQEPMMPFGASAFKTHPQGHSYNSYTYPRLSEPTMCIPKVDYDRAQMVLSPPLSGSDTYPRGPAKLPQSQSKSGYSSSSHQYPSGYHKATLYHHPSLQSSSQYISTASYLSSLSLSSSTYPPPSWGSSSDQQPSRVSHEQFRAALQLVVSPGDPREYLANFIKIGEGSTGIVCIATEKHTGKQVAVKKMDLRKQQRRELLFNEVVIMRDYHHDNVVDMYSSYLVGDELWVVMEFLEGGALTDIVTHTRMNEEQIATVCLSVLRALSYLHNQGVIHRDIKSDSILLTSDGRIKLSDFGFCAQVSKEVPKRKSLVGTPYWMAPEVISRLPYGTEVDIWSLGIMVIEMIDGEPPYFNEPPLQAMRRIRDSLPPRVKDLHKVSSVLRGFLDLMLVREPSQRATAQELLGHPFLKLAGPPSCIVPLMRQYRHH

| Compound | residual activity [%] |
| --- | --- |
| CSc1nc(-c2ccc(F)cc2)c(-c2ccnc(NC(C)c3ccccc3)c2)[nH]1 (stereo unspecified) | 85.3 |
| O=C1Nc2cc(Br)ccc2/C1=C1/Nc2ccccc2/C1=N\O | 104 |
| CC(C)(C)c1nc2c3ccc(F)cc3c3c(=O)[nH]ccc3c2[nH]1 | 90.5 |
| O=C(NC(NC(=S)Nc1ccc(F)c([N+](=O)[O-])c1)C(Cl)(Cl)Cl)C(c1ccccc1)c1ccccc1 (stereo unspecified) | 104 |
| CS(=O)c1ccc(-c2nc(-c3ccc(F)cc3)c(-c3ccncc3)[nH]2)cc1 (stereo unspecified) | 104 |

target: PLK1 (human) (UniProt P53350); test: as above; conditions: compound 0.5 µM; ATP 10 µM
Sequence (P53350 whole entry, looked up): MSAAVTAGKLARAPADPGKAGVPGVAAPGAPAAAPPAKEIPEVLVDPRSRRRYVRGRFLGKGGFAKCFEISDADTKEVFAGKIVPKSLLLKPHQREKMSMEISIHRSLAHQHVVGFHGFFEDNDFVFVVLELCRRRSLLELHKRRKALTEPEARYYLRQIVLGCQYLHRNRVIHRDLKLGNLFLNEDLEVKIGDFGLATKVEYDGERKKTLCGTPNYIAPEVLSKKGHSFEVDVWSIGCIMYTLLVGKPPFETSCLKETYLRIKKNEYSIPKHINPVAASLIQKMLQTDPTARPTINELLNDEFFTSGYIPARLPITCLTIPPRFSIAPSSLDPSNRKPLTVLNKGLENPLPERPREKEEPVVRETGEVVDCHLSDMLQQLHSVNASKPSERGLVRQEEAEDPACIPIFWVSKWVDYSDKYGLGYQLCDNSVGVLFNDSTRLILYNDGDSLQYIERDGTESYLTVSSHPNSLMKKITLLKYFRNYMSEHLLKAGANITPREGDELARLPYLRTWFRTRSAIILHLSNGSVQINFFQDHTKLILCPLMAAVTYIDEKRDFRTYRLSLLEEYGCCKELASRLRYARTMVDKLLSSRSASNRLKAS

| Compound | residual activity [%] |
| --- | --- |
| CSc1nc(-c2ccc(F)cc2)c(-c2ccnc(NC(C)c3ccccc3)c2)[nH]1 (stereo unspecified) | 99.1 |
| O=C1Nc2cc(Br)ccc2/C1=C1/Nc2ccccc2/C1=N\O | 101 |
| CC(C)(C)c1nc2c3ccc(F)cc3c3c(=O)[nH]ccc3c2[nH]1 | 10.5 |
| O=C(NC(NC(=S)Nc1ccc(F)c([N+](=O)[O-])c1)C(Cl)(Cl)Cl)C(c1ccccc1)c1ccccc1 (stereo unspecified) | 111 |
| CS(=O)c1ccc(-c2nc(-c3ccc(F)cc3)c(-c3ccncc3)[nH]2)cc1 (stereo unspecified) | 100 |

target: PRKG1 (human) (UniProt Q13976); test: as above; conditions: compound 0.5 µM; ATP 10 µM
Sequence (Q13976 whole entry, looked up): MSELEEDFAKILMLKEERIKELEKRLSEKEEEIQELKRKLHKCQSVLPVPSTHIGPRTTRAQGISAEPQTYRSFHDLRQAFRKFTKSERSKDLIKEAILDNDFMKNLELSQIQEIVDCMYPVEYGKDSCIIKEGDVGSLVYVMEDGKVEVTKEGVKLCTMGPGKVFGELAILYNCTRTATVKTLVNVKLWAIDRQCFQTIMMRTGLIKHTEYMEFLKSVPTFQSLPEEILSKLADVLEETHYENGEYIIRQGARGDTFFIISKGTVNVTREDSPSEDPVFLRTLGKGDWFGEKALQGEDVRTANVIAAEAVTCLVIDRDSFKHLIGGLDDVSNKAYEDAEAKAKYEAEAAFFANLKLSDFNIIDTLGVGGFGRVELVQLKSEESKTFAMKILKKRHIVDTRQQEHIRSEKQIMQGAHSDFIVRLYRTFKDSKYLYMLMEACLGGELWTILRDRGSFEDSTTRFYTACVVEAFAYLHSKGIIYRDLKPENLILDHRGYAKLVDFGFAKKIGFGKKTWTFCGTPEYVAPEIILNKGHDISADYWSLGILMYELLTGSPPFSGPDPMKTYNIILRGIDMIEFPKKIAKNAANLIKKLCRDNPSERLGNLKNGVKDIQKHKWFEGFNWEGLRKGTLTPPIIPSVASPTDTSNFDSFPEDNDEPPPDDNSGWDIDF

| Compound | residual activity |
| --- | --- |
| CSc1nc(-c2ccc(F)cc2)c(-c2ccnc(NC(C)c3ccccc3)c2)[nH]1 (stereo unspecified) | 105% |
| O=C1Nc2cc(Br)ccc2/C1=C1/Nc2ccccc2/C1=N\O | 89% and 93.6% |
| CC(C)(C)c1nc2c3ccc(F)cc3c3c(=O)[nH]ccc3c2[nH]1 | 40.2% and 52.3% |
| O=C(NC(NC(=S)Nc1ccc(F)c([N+](=O)[O-])c1)C(Cl)(Cl)Cl)C(c1ccccc1)c1ccccc1 (stereo unspecified) | 100% and 109% |
| CS(=O)c1ccc(-c2nc(-c3ccc(F)cc3)c(-c3ccncc3)[nH]2)cc1 (stereo unspecified) | 88.8% and 94.3% |

target: RET (human) (UniProt P07949); test: as above; conditions: compound 0.5 µM; ATP 10 µM

| Compound | residual activity [%] |
| --- | --- |
| CSc1nc(-c2ccc(F)cc2)c(-c2ccnc(NC(C)c3ccccc3)c2)[nH]1 (stereo unspecified) | 101 |
| O=C1Nc2cc(Br)ccc2/C1=C1/Nc2ccccc2/C1=N\O | 0.0602 |
| CC(C)(C)c1nc2c3ccc(F)cc3c3c(=O)[nH]ccc3c2[nH]1 | 18.3 |
| O=C(NC(NC(=S)Nc1ccc(F)c([N+](=O)[O-])c1)C(Cl)(Cl)Cl)C(c1ccccc1)c1ccccc1 (stereo unspecified) | 103 |
| CS(=O)c1ccc(-c2nc(-c3ccc(F)cc3)c(-c3ccncc3)[nH]2)cc1 (stereo unspecified) | 85.1 |

target: ROS1 (human) (UniProt P08922); test: as above; conditions: compound 0.5 µM; ATP 10 µM

| Compound | residual activity [%] |
| --- | --- |
| CSc1nc(-c2ccc(F)cc2)c(-c2ccnc(NC(C)c3ccccc3)c2)[nH]1 (stereo unspecified) | 99.1 |
| O=C1Nc2cc(Br)ccc2/C1=C1/Nc2ccccc2/C1=N\O | 82 |
| CC(C)(C)c1nc2c3ccc(F)cc3c3c(=O)[nH]ccc3c2[nH]1 | 31.2 |
| O=C(NC(NC(=S)Nc1ccc(F)c([N+](=O)[O-])c1)C(Cl)(Cl)Cl)C(c1ccccc1)c1ccccc1 (stereo unspecified) | 99.5 |
| CS(=O)c1ccc(-c2nc(-c3ccc(F)cc3)c(-c3ccncc3)[nH]2)cc1 (stereo unspecified) | 94.4 |

target: SIK2 (human) (UniProt Q9H0K1); test: as above; conditions: compound 0.5 µM; ATP 10 µM

| Compound | residual activity [%] |
| --- | --- |
| CSc1nc(-c2ccc(F)cc2)c(-c2ccnc(NC(C)c3ccccc3)c2)[nH]1 (stereo unspecified) | 97.2 |
| O=C1Nc2cc(Br)ccc2/C1=C1/Nc2ccccc2/C1=N\O | 31.1 |
| CC(C)(C)c1nc2c3ccc(F)cc3c3c(=O)[nH]ccc3c2[nH]1 | 60.2 |
| O=C(NC(NC(=S)Nc1ccc(F)c([N+](=O)[O-])c1)C(Cl)(Cl)Cl)C(c1ccccc1)c1ccccc1 (stereo unspecified) | 112 |
| CS(=O)c1ccc(-c2nc(-c3ccc(F)cc3)c(-c3ccncc3)[nH]2)cc1 (stereo unspecified) | 82.1 |

target: TAOK3 (human) (UniProt Q9H2K8); test: as above; conditions: compound 0.5 µM; ATP 10 µM
Sequence (Q9H2K8 whole entry, looked up): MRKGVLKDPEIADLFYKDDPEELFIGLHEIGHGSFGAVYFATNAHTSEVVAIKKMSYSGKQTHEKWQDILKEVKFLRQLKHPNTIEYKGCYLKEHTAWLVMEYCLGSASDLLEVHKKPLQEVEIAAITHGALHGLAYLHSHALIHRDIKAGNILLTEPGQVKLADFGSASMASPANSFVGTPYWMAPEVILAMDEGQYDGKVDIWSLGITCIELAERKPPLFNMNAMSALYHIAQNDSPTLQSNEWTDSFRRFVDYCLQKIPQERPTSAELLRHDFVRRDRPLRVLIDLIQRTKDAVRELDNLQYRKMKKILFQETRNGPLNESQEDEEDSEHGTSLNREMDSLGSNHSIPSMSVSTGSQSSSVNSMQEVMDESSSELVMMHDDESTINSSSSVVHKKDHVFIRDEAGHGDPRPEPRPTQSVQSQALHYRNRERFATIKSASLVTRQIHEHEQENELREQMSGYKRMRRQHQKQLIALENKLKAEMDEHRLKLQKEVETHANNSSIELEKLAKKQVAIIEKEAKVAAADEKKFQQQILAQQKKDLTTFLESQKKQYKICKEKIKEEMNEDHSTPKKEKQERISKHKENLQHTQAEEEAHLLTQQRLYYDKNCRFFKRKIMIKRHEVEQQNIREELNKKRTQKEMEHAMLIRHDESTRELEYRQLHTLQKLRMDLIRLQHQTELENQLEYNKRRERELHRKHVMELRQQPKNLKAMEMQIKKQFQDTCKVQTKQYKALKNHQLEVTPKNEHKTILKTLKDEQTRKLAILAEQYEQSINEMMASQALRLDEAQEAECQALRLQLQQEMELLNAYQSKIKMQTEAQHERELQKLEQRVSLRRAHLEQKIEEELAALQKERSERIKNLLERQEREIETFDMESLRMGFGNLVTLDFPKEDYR

| Compound | residual activity [%] |
| --- | --- |
| CSc1nc(-c2ccc(F)cc2)c(-c2ccnc(NC(C)c3ccccc3)c2)[nH]1 (stereo unspecified) | 91.7 |
| O=C1Nc2cc(Br)ccc2/C1=C1/Nc2ccccc2/C1=N\O | 56.9 |
| CC(C)(C)c1nc2c3ccc(F)cc3c3c(=O)[nH]ccc3c2[nH]1 | 50.3 |
| O=C(NC(NC(=S)Nc1ccc(F)c([N+](=O)[O-])c1)C(Cl)(Cl)Cl)C(c1ccccc1)c1ccccc1 (stereo unspecified) | 121 |
| CS(=O)c1ccc(-c2nc(-c3ccc(F)cc3)c(-c3ccncc3)[nH]2)cc1 (stereo unspecified) | 103 |

target: TNK2 (human) (UniProt Q07912); test: as above; conditions: compound 0.5 µM; ATP 10 µM
Sequence (Q07912 whole entry, looked up): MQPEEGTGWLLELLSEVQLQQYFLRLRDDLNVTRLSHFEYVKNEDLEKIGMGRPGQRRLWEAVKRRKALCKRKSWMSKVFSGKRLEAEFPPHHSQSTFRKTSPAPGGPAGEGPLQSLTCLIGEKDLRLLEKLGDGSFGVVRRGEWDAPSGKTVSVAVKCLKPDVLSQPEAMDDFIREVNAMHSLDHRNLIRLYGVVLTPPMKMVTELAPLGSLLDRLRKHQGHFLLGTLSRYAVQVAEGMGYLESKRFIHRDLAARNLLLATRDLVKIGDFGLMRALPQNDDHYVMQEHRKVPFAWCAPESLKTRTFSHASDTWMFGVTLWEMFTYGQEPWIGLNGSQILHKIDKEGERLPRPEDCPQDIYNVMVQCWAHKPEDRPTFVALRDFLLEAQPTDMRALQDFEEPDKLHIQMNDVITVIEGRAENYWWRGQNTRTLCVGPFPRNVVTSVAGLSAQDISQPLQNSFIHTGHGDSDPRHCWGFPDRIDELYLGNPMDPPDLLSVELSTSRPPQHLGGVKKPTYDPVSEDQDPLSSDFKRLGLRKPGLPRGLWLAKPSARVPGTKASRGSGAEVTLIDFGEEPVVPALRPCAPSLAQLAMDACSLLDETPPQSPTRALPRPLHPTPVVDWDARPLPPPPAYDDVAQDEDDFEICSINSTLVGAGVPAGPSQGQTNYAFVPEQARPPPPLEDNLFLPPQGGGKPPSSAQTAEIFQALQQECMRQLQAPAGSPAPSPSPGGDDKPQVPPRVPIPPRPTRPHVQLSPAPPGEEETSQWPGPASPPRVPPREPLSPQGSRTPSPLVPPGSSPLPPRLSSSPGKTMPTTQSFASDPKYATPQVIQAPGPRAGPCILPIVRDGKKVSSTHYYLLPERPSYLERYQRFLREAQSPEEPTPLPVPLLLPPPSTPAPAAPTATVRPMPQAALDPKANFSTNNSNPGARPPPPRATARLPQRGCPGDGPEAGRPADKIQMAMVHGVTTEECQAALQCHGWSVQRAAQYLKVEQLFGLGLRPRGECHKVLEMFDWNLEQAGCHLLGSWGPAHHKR

| Compound | residual activity [%] |
| --- | --- |
| CSc1nc(-c2ccc(F)cc2)c(-c2ccnc(NC(C)c3ccccc3)c2)[nH]1 (stereo unspecified) | 78.4 |
| CC(C)(C)c1nc2c3ccc(F)cc3c3c(=O)[nH]ccc3c2[nH]1 | 4.36 |
| O=C(NC(NC(=S)Nc1ccc(F)c([N+](=O)[O-])c1)C(Cl)(Cl)Cl)C(c1ccccc1)c1ccccc1 (stereo unspecified) | 98 |
| CS(=O)c1ccc(-c2nc(-c3ccc(F)cc3)c(-c3ccncc3)[nH]2)cc1 (stereo unspecified) | 82.1 |

target: TSSK1B (human) (UniProt Q9BXA7); test: as above; conditions: compound 0.5 µM; ATP 10 µM
Sequence (Q9BXA7 whole entry, looked up): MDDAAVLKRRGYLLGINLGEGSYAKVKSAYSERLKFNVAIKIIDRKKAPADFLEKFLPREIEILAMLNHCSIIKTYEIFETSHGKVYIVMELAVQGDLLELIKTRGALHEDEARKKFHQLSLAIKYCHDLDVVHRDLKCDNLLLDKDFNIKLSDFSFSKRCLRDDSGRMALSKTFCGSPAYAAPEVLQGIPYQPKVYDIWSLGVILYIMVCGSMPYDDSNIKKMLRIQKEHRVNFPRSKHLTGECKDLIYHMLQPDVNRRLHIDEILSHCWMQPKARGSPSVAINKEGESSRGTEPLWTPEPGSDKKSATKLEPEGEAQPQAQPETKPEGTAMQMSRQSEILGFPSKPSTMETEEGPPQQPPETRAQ

| Compound | residual activity [%] |
| --- | --- |
| CSc1nc(-c2ccc(F)cc2)c(-c2ccnc(NC(C)c3ccccc3)c2)[nH]1 (stereo unspecified) | 73.5 |
| O=C1Nc2cc(Br)ccc2/C1=C1/Nc2ccccc2/C1=N\O | 83 |
| CC(C)(C)c1nc2c3ccc(F)cc3c3c(=O)[nH]ccc3c2[nH]1 | 37.3 |
| O=C(NC(NC(=S)Nc1ccc(F)c([N+](=O)[O-])c1)C(Cl)(Cl)Cl)C(c1ccccc1)c1ccccc1 (stereo unspecified) | 93.4 |
| CS(=O)c1ccc(-c2nc(-c3ccc(F)cc3)c(-c3ccncc3)[nH]2)cc1 (stereo unspecified) | 108 |

target: WEE1 (human) (UniProt P30291); test: as above; conditions: compound 0.5 µM; ATP 10 µM
Sequence (P30291 whole entry, looked up): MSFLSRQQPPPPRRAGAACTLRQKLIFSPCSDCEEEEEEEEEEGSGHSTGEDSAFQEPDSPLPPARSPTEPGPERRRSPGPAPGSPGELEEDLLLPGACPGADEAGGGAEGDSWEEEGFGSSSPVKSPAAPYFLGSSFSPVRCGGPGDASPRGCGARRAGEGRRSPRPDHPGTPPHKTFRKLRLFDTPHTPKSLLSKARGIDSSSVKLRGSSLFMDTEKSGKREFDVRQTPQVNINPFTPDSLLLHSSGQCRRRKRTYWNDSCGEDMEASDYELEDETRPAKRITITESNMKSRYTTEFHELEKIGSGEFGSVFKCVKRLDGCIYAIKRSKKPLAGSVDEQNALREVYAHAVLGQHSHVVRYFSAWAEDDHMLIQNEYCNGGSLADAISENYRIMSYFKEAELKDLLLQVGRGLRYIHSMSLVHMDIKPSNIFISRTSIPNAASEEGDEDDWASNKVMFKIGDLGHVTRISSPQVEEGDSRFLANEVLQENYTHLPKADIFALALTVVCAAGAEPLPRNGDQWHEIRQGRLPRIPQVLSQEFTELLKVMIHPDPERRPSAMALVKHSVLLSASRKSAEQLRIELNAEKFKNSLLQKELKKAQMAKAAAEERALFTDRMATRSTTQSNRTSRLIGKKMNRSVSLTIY

| Compound | residual activity [%] |
| --- | --- |
| CSc1nc(-c2ccc(F)cc2)c(-c2ccnc(NC(C)c3ccccc3)c2)[nH]1 (stereo unspecified) | 76.1 |
| O=C1Nc2cc(Br)ccc2/C1=C1/Nc2ccccc2/C1=N\O | 96 |
| CC(C)(C)c1nc2c3ccc(F)cc3c3c(=O)[nH]ccc3c2[nH]1 | 87.4 |
| O=C(NC(NC(=S)Nc1ccc(F)c([N+](=O)[O-])c1)C(Cl)(Cl)Cl)C(c1ccccc1)c1ccccc1 (stereo unspecified) | 91.8 |
| CS(=O)c1ccc(-c2nc(-c3ccc(F)cc3)c(-c3ccncc3)[nH]2)cc1 (stereo unspecified) | 92.1 |
